Laboratory results as given in the NIST ThermoML archive (doi:10.1021/je060271a).

Conditions: Liquid, Vibrating tube method

CCCCCCC(=O)OCC(COC(=O)CCCCCC)(COC(=O)CCCCCC)COC(=O)CCCCCC [pentaerythritol tetraheptanoate]
Conditions | mass density [kg/m3]
323.15 K, 32352 kPa | 976
323.15 K, 32396 kPa | 976
323.15 K, 32734 kPa | 976.2
323.15 K, 32779 kPa | 976.2
323.15 K, 32824 kPa | 976.2
323.15 K, 32870 kPa | 976.3
323.15 K, 32924 kPa | 976.3
323.15 K, 32970 kPa | 976.3
323.15 K, 33016 kPa | 976.4
323.15 K, 33072 kPa | 976.4
323.15 K, 33118 kPa | 976.4
323.15 K, 33164 kPa | 976.4
323.15 K, 33219 kPa | 976.5
323.15 K, 33314 kPa | 976.4
323.15 K, 33463 kPa | 976.7
323.15 K, 33519 kPa | 976.7
323.15 K, 33566 kPa | 976.7
323.15 K, 33612 kPa | 976.6
323.15 K, 33657 kPa | 976.7
323.15 K, 33718 kPa | 976.7
323.15 K, 33778 kPa | 976.7
323.15 K, 33830 kPa | 976.8
323.15 K, 33882 kPa | 976.7
323.15 K, 33940 kPa | 976.9
323.15 K, 33970 kPa | 976.8
323.15 K, 34065 kPa | 976.9
323.15 K, 34098 kPa | 977
323.15 K, 34123 kPa | 977
323.15 K, 34149 kPa | 977.1
323.15 K, 34181 kPa | 977
323.15 K, 34207 kPa | 977.1
323.15 K, 34235 kPa | 977.1
323.15 K, 34262 kPa | 977.1
323.15 K, 34295 kPa | 977
323.15 K, 34323 kPa | 977.2
323.15 K, 34351 kPa | 977.1
323.15 K, 34379 kPa | 977.2
323.15 K, 34415 kPa | 977.1
323.15 K, 34444 kPa | 977.2
323.15 K, 34481 kPa | 977.2
323.15 K, 34513 kPa | 977.3
323.15 K, 34545 kPa | 977.2
323.15 K, 34570 kPa | 977.3
323.15 K, 34571 kPa | 977.2
323.15 K, 34574 kPa | 977.2
323.15 K, 34576 kPa | 977.3
323.15 K, 34578 kPa | 977.2
323.15 K, 34581 kPa | 977.3
323.15 K, 34584 kPa | 977.2
323.15 K, 34586 kPa | 977.3
323.15 K, 34589 kPa | 977.3
323.15 K, 34593 kPa | 977.2
323.15 K, 34596 kPa | 977.3
323.15 K, 34600 kPa | 977.3
323.15 K, 34605 kPa | 977.3
323.15 K, 34611 kPa | 977.3
323.15 K, 34616 kPa | 977.2
343.13 K, 13322 kPa | 950.4
343.13 K, 13336 kPa | 950.3
343.13 K, 13347 kPa | 950.4
343.13 K, 13362 kPa | 950.3
343.13 K, 13471 kPa | 950.5
343.13 K, 13485 kPa | 950.5
343.14 K, 13145 kPa | 950
343.14 K, 13156 kPa | 950.2
343.14 K, 13167 kPa | 950.1
343.14 K, 13180 kPa | 950.2
343.14 K, 13192 kPa | 950.3
343.14 K, 13203 kPa | 950.3
343.14 K, 13216 kPa | 950.2
343.14 K, 13227 kPa | 950.2
343.14 K, 13238 kPa | 950.2
343.14 K, 13252 kPa | 950.1
343.14 K, 13263 kPa | 950.3
343.14 K, 13274 kPa | 950.4
343.14 K, 13286 kPa | 950.4
343.14 K, 13300 kPa | 950.3
343.14 K, 13311 kPa | 950.2
343.14 K, 13373 kPa | 950.2
343.14 K, 13384 kPa | 950.4
343.14 K, 13399 kPa | 950.4
343.14 K, 13410 kPa | 950.5
343.14 K, 13420 kPa | 950.4
343.14 K, 13431 kPa | 950.5
343.14 K, 13448 kPa | 950.3
343.14 K, 13460 kPa | 950.4
343.14 K, 13497 kPa | 950.4
343.14 K, 13509 kPa | 950.4
343.14 K, 13521 kPa | 950.4
343.14 K, 13535 kPa | 950.5
343.14 K, 13547 kPa | 950.5
343.14 K, 13560 kPa | 950.6
343.14 K, 13574 kPa | 950.5
343.14 K, 13586 kPa | 950.6
343.14 K, 13598 kPa | 950.5
343.14 K, 13610 kPa | 950.6
343.14 K, 13622 kPa | 950.6
343.14 K, 13636 kPa | 950.6
343.14 K, 13648 kPa | 950.7
343.14 K, 13870 kPa | 950.7
343.14 K, 13883 kPa | 950.7
343.14 K, 13898 kPa | 950.7
343.14 K, 13911 kPa | 950.8
343.14 K, 13926 kPa | 950.7
343.14 K, 13938 kPa | 950.8
343.14 K, 13951 kPa | 950.8
343.14 K, 13964 kPa | 950.8
343.14 K, 13977 kPa | 950.7
343.14 K, 13992 kPa | 950.8
343.14 K, 14004 kPa | 950.8
343.14 K, 14018 kPa | 950.8
343.14 K, 14033 kPa | 950.8
343.14 K, 14046 kPa | 950.8
343.14 K, 14058 kPa | 950.9
343.14 K, 14074 kPa | 950.7
343.14 K, 14087 kPa | 950.9
343.14 K, 14100 kPa | 950.9
343.14 K, 14113 kPa | 950.8
343.14 K, 14129 kPa | 950.8
343.14 K, 14142 kPa | 950.8
343.14 K, 14157 kPa | 951
343.14 K, 14170 kPa | 951
343.14 K, 14183 kPa | 951
343.14 K, 14199 kPa | 951
343.14 K, 14212 kPa | 950.9
343.14 K, 14225 kPa | 950.9
343.14 K, 14239 kPa | 951
343.14 K, 14255 kPa | 951
343.14 K, 14268 kPa | 950.9
343.14 K, 14281 kPa | 951.1
343.14 K, 14298 kPa | 951
343.14 K, 14311 kPa | 951.1
343.14 K, 14324 kPa | 951
343.14 K, 14340 kPa | 950.9
343.14 K, 14354 kPa | 951.1
343.14 K, 14367 kPa | 951.1
343.14 K, 14383 kPa | 951
343.14 K, 16135 kPa | 952.3
343.14 K, 16152 kPa | 952.4
343.14 K, 16173 kPa | 952.3
343.14 K, 16190 kPa | 952.3
343.14 K, 16208 kPa | 952.3
343.14 K, 16228 kPa | 952.4
343.14 K, 16245 kPa | 952.4
343.14 K, 16263 kPa | 952.3
343.14 K, 16283 kPa | 952.4
343.14 K, 16301 kPa | 952.4
343.14 K, 16319 kPa | 952.4
343.14 K, 16339 kPa | 952.5
343.14 K, 16357 kPa | 952.5
343.14 K, 16376 kPa | 952.4
343.14 K, 16394 kPa | 952.5
343.14 K, 16415 kPa | 952.5
343.14 K, 16433 kPa | 952.5
343.14 K, 16451 kPa | 952.7
343.14 K, 16472 kPa | 952.5
343.14 K, 16490 kPa | 952.5
343.14 K, 16508 kPa | 952.6
343.14 K, 16526 kPa | 952.6
343.14 K, 16548 kPa | 952.6
343.14 K, 16566 kPa | 952.5
343.14 K, 16585 kPa | 952.6
343.14 K, 16607 kPa | 952.7
343.14 K, 16626 kPa | 952.7
343.14 K, 16645 kPa | 952.7
343.14 K, 16664 kPa | 952.6
343.14 K, 16682 kPa | 952.6
343.14 K, 16704 kPa | 952.7
343.14 K, 16722 kPa | 952.8
343.14 K, 16744 kPa | 952.8
343.14 K, 16763 kPa | 952.7
343.14 K, 16781 kPa | 952.7
343.14 K, 16800 kPa | 952.7
343.14 K, 16822 kPa | 952.8
343.14 K, 16841 kPa | 952.8
343.14 K, 16863 kPa | 952.8
343.14 K, 16901 kPa | 952.8
343.14 K, 16924 kPa | 952.8
343.14 K, 16943 kPa | 952.9
343.14 K, 16962 kPa | 953
343.14 K, 16981 kPa | 952.9
343.14 K, 17004 kPa | 952.9
343.14 K, 17022 kPa | 953
343.14 K, 17042 kPa | 953
343.14 K, 17065 kPa | 953
343.14 K, 17084 kPa | 953.1
343.14 K, 17107 kPa | 952.9
343.14 K, 17126 kPa | 952.9
343.14 K, 17146 kPa | 953
343.14 K, 17165 kPa | 953
343.14 K, 17188 kPa | 953.1
343.14 K, 17208 kPa | 953
343.14 K, 17227 kPa | 953.1
343.14 K, 17251 kPa | 953.1
343.14 K, 17270 kPa | 953.2
343.14 K, 17294 kPa | 953.2
343.14 K, 17314 kPa | 953.2
343.14 K, 17334 kPa | 953.1
343.14 K, 17358 kPa | 953.1
343.14 K, 17378 kPa | 953.1
343.14 K, 17398 kPa | 953.2
343.14 K, 17419 kPa | 953
343.14 K, 17443 kPa | 953.1
343.14 K, 17593 kPa | 953.4
343.14 K, 17613 kPa | 953.2
343.14 K, 17638 kPa | 953.3
343.14 K, 17659 kPa | 953.4
343.14 K, 17680 kPa | 953.3
343.14 K, 17701 kPa | 953.4
343.14 K, 17722 kPa | 953.4
343.14 K, 17747 kPa | 953.4
343.14 K, 17768 kPa | 953.5
343.14 K, 17789 kPa | 953.5
343.14 K, 17815 kPa | 953.5
343.14 K, 17835 kPa | 953.5
343.14 K, 17860 kPa | 953.4
343.14 K, 17902 kPa | 953.5
343.14 K, 17928 kPa | 953.4
343.14 K, 18040 kPa | 953.6
343.14 K, 18066 kPa | 953.6
343.14 K, 18088 kPa | 953.5
343.14 K, 18109 kPa | 953.6
343.14 K, 18130 kPa | 953.7
